In the METLIN SMRT retention time set (Domingo-Almenara et al. 2019) one finds RP-LC retention time data, which are given here for 78 compounds.

Each structure is given as a SMILES string.

This data set in a line: gradient 5% acetonitrile 3 min, to 50% in 2 min, to 85% in 15 min, held 3 min, 100 µL/min. The note with it: column: Zorbax Extend-C18 2.1 x 50 mm; eluents: water / acetonitrile, 0.1% formic acid. The gist of the method: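 Data were gathered over 3 months by HPLC coupled to a quadrupole time-of-flight mass spectrometer, operated in positive and negative ionization mode. Mixtures of ~100 pure standards ran on a Zorbax Extend-C18 column (2.1 × 50 mm, 1.8 μm) at 100 μL/min, with water and acetonitrile each containing 0.1% formic acid and dead and dwell volumes of 40 μL and 900 μL. Retention time was read from adduct peaks picked by computer and checked manually.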
The compound `Cc1nn(C(C)C(=O)NCCc2ccccc2)c(=O)c2c(-n3cccc3)n(-c3ccccc3)nc12` (stereo not drawn) displayed an RP-LC retention time of 1070 s.
For `O=C(c1cc2ccccc2[nH]1)N1CCCC(c2nnc(C(F)(F)F)o2)C1` (stereo not drawn), the RP-LC retention time was 857 s.
The value for `COc1ccc(C)cc1NC(=O)Nc1c(-c2ccc(C)cc2)nc2ccccn12` was 722 s.
The value for `CCc1ccc(C2=C(C)C(N3CCCN(C(=O)NCCOC)CC3)=NS2(=O)=O)cc1` was 731 s; that for `O=C1C(N2CCCN(S(=O)(=O)c3cccnc3)CC2)CCN1CC1CC1` (stereo not drawn) was 593 s.
The value for `Nc1nnc(CS(=O)(=O)c2ccccc2)o1` was 568 s; that for `CCOc1ccc(S(=O)(=O)NCc2c(-c3ccccc3)nc3sc(C)nn23)cc1` was 913 s; that for `Cc1ccccc1CNC(=O)c1cc2n(n1)CC(C)(C(=O)NCc1ccccc1)N(C)C2=O` (stereo not drawn) was 769 s.
On to `CSc1ncccc1C(=O)N1CCCC1c1nc(-c2ccc(F)cc2F)no1` (stereo not drawn), for which the RP-LC retention time amounted to 907 s.
The value for `COc1cccc(-c2cc3n(n2)C(NC2CC2)CNC3=O)c1` (stereo not drawn) was 562 s; that for `O=S(=O)(NC1(c2nc(-c3ccsc3)no2)CCCCC1)c1ccc2c(c1)OCCO2` was 954 s.
The value for `O=c1c2sccc2n(Cc2nc(-c3cccc(C(F)(F)F)c3)no2)c(=O)n1-c1ccc(F)cc1` was 1070 s.
The value for `Cc1[nH]c(C(=O)N2CCCC(C(=O)NCCN3CCCCC3)C2)c(C)c1C(=O)OC(C)C` (stereo not drawn) was 634 s; that for `Cn1cnc2cc(CNC(=O)c3ccc(C#N)cc3)ccc21` was 578 s; that for `COc1cccc(Sc2ccc(N3CCC(C(=O)N4CCN(c5ccccn5)CC4)CC3)nn2)c1` was 616 s.
As for `CCC(C)NC(=O)Cn1c(=O)n(-c2cc(OC)cc(OC)c2)c(=O)c2ccccc21` (stereo not drawn), the RP-LC retention time is 800 s.
The value for `CCCN1CCN(C(=O)c2ccc(CS(=O)c3ccccc3Cl)o2)CC1` (stereo not drawn) was 593 s.
The value for `Cc1ccc(-c2ccc(-n3nc(C)c(S(=O)(=O)NCCN4CCCCC4C)c3C)nn2)cc1C` (stereo not drawn) was 748 s; that for `O=C(c1cccnc1)N1CCN(C(=O)c2nnn3c2COC(c2ccccc2)C3)CC1` (stereo not drawn) was 640 s.
The value for `COc1ccc2[nH]cc(CCNC(=O)C(C)n3c4ccccc4c4cnn(C)c(=O)c43)c2c1` (stereo not drawn) was 813 s; that for `CC1(C)Cc2cccc(OCC(=O)N3CCN(CCn4cccn4)CC3)c2O1` was 583 s; that for `CCOCCCNC(=O)C1CCCN(c2ccc(=O)n(-c3ccc(C)c(Cl)c3)n2)C1` (stereo not drawn) was 826 s.
Compound `Cc1nc(OCC(=O)Nc2c(C)cccc2C)c2ccccc2n1` yielded an RP-LC retention time of 756 s.
Regarding `O=C(c1cnccn1)N1CCN(c2ccc(-n3cccn3)nn2)CC1`, the RP-LC retention time came out at 580 s.
The value for `COC(=O)c1ccccc1Nc1c(-c2ccc(Cl)cc2)nc2cnccn12` was 1130 s; that for `COc1ccc(-c2cn3c(CC(=O)Nc4ccc(OC)cc4OC)csc3n2)cc1` was 746 s; that for `COCC(C)NS(=O)(=O)c1c(C)[nH]c(=O)[nH]c1=O` (stereo not drawn) was 570 s.
`COc1ccc(C(=O)N2C[C@@H]3C[C@H]2C[C@@H]3NC(=O)c2cccnc2)cc1F` came in with an RP-LC retention time of 618 s.
The value for `Cc1ccc(S(=O)(=O)N2CCc3c(c(-c4nnc(-c5ccccc5F)o4)nn3C)C2)cc1C` was 988 s; that for `Fc1ccc(F)c(CNc2nnc(-c3nc(C4CC4)no3)c3ccccc23)c1` was 672 s.
Turning to `CC(NC(=O)Cc1cn(C)c2ncccc12)c1ccccc1` (stereo not drawn), the RP-LC retention time turned out to be 679 s.
The value for `COc1cccc(S(=O)(=O)N2CCC3(C2)C(=O)Nc2ccc(OC)cc23)c1` (stereo not drawn) was 816 s.
The value for `Cc1ccc(NS(=O)(=O)c2ccc3c(c2)C(=O)N(C)c2ncccc2O3)c(C)c1` was 986 s; that for `O=C(Cc1csc(NC(=O)c2cnccn2)n1)Nc1nc2ccccc2s1` was 734 s.
On to `CCCCc1ccc(N2C(=O)C3N=NN(Cc4nc(-c5ccc(Cl)cc5)no4)C3C2=O)cc1` (stereo not drawn), for which the RP-LC retention time amounted to 1280 s.
For `O=C(NCc1ccc(F)cc1)c1ccc2c(c1)CCN2C(=O)C1CC1`, the RP-LC retention time came out at 813 s.
The value for `COCCCNC(=O)Nc1ccc2c(c1)CCN2S(=O)(=O)c1ccccc1` was 762 s.
The value for `CCOC(=O)c1c(C)[nH]c(C(=O)N2CCC(CC(=O)N(C)Cc3ccco3)CC2)c1C` was 765 s; that for `CCC(=O)Nc1ccc2c(c1)CN(C(=O)c1ccc(Cl)cc1)C(C(=O)N1CCCC1)C2` (stereo not drawn) was 738 s.
The value for `O=C(C1CCC1)N1CCc2sc(S(=O)(=O)N3CCN(c4ccccc4)CC3)cc2C1` was 1060 s; that for `COCCNC(=O)CN1CCN(c2cc(C(=O)O)c3cc(NC(=O)C(C)(C)C)ccc3n2)CC1` was 561 s.
`CCOc1ccccc1NC(=O)N1CCC(c2cnn(-c3ccccc3)c2)CC1` registered an RP-LC retention time of 1040 s.
The value for `COCCN1C(=O)CCC2(CNC(=O)c3cnccn3)CCCC=C12` (stereo not drawn) was 657 s; that for `O=C(NC1CCCCCC1)c1nc(N2CCCC2)c2ccccc2n1` was 759 s.
Consider `COc1ccc(OC)c(CNC(=O)C2=C3CCCN3c3ccc(F)cc3S2(=O)=O)c1`, for which the RP-LC retention time is 872 s.
The value for `CCn1c(=O)oc2cc(-c3noc(-c4ccc(F)cc4Cl)n3)ccc21` was 1190 s; that for `Cc1ccc(C)c(NC(=O)N2CCC(c3cc(N)on3)CC2)c1` was 698 s.
The value for `CCCNC(=O)CCc1nc2ccccc2n(CC(=O)Nc2cccc(SC)c2)c1=O` was 819 s; that for `CCc1noc2nc(CCC(=O)NCCCN3CCN(C)CC3)nc(N3CCCCC3)c12` was 599 s; that for `COc1cccc(CNC(=O)N2CCC3(C2)C(=O)N(C)c2ccc(OC)cc23)c1` (stereo not drawn) was 704 s.
The value for `CC(C)N1CCn2cc(S(=O)(=O)Nc3ccc(F)cc3Cl)cc2C1=O` was 778 s; that for `Cc1oc(-c2[nH]ncc2C(=O)N2CCCC2)cc1S(=O)(=O)Nc1cc(F)ccc1F` was 699 s; that for `O[C@@H]1C[C@@H](c2nnc3n2CCN(Cc2ccccn2)C3)N(Cc2ccccc2)C1` was 537 s.
For the compound `CC(=O)c1ccc(-n2ccc3c(cnc4c(-c5ccccc5)c(C)nn43)c2=O)cc1`, the RP-LC retention time was found to be 969 s.
The compound `COc1ccc(NC(=O)N2CC3CN(C)CC(C2)O3)cc1` returned an RP-LC retention time of 560 s.
The value for `O=c1c2nc(-c3ccccc3)cn2ccn1-c1ccc(F)cc1` was 775 s.
The value for `CCN1C(=O)C(CC(=O)NC(C)c2ccccc2)Sc2ncccc21` (stereo not drawn) was 751 s; that for `O=S(=O)(c1cccn2c(SCc3ccccc3F)nnc12)N1CCCC1` was 803 s.
The value for `COc1cccc(CNC(=O)Cn2c(=O)cc(-c3nc(C(C)C)no3)c3ccccc32)c1` was 944 s; that for `Cc1ccc(NC(=O)c2cn(C)nc2S(=O)(=O)N2CCSCC2)cc1F` was 981 s; that for `O=C(c1cc2c(s1)CCCC2)N1CCN(c2nnc3ccccn23)CC1` was 746 s.
Compound `COC(=O)c1ccccc1NC(=O)Cn1cnc2nc(-c3ccc(OC)cc3)ncc2c1=O` returned an RP-LC retention time of 925 s.
The value for `Cc1ccc(C(=O)NCC(=O)N2CCCc3ccccc32)s1` was 830 s.
The value for `N#Cc1cccc(N2C=C(C(=O)N3CCCCC3)S(=O)(=O)c3ccc(F)cc32)c1` was 827 s.
`CCOc1ccc(NC(=O)Cn2nc(N3CCSCC3)c3ccccc3c2=O)cc1`: the RP-LC retention time is 929 s.
Regarding `CCOC(=O)Cc1ccc(NC(=O)N2CCC3(CC2)NC(=O)c2ccccc2O3)cc1`, the RP-LC retention time was found to be 761 s.
Regarding `Brc1cccc(-c2nnc(Cc3nc(-c4ccc5c(c4)OCO5)no3)o2)c1`, the RP-LC retention time is 1060 s.
The value for `Cc1cn(C)c(CC(=O)NCc2cccs2)c1C(=O)O` was 693 s; that for `COc1ccc(NC(=O)N2CCCC(C)(C(=O)NCc3ccc(C)cc3)C2)cc1` (stereo not drawn) was 874 s; that for `Cc1ccc(NS(=O)(=O)c2cc(-c3[nH]ncc3C(=O)N(C)C)oc2C)cc1F` was 713 s.
`O=S(=O)(Nc1cccn2ncnc12)c1ccc(F)cc1`: the RP-LC retention time worked out at 694 s.
The value for `CC1CCN(C(=O)c2ccc3c(=O)n4c(nc3c2)CCCC4)CC1` was 707 s; that for `COc1ccccc1-c1nc(Cn2nnc(-c3nc(-c4ccncc4)no3)c2C)c(C)o1` was 872 s; that for `CCCn1c(=O)sc2cc(S(=O)(=O)N3CCC(C(=O)N(C)C4CCCCC4)CC3)ccc21` was 1020 s.
The value for `O=C(Cn1nc(N2CCSCC2)c2ccccc2c1=O)Nc1ccccc1Cl` was 979 s; that for `Cc1ccc2ncn(C3CCN(S(=O)(=O)c4cccc(Cl)c4)CC3)c(=O)c2c1` was 963 s; that for `CN(C)C(=O)c1ccc2c(c1)N(CC(=O)N1CCCCC1)C(=O)C1CCCCN21` (stereo not drawn) was 701 s.
The value for `CCc1cc(=O)n(Cc2ncc(C)c(OC)c2C)c(N2CCCC2)n1` was 554 s.
